Experimental data taken from ChEMBL document CHEMBL1201862, “PubChem BioAssay data set” (2004).
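Test compounds were applied to cells in 96-well plates for 48 hours at 5 doses. GI50 = concentration required for 50% inhibition of growth.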 Activity calls are given as the source filed them. Cut-off read from the data, not from the text of the source: active = GI50 up to about 1.1 µM and inactive = higher.

What was measured:
Test in all cases: growth of human tumour cells (NCI), 48 h
COLO 205 = test system: COLO 205
RXF 631 = test system: RXF 631
DMS-273 = test system: DMS-273
IGROV-1 = test system: IGROV-1
Malme-3M = test system: Malme-3M
KM-20L2 = test system: KM-20L2
NCI-H226 = test system: NCI-H226
SR = test system: SR
HL-60 = test system: HL-60
SF-295 = test system: SF-295
SF-539 = test system: SF-539
HT-29 = test system: HT-29
HOP-92 = test system: HOP-92
OVCAR-3 = test system: OVCAR-3
CCRF-CEM = test system: CCRF-CEM
ACHN = test system: ACHN
KM12 = test system: KM12
HOP-62 = test system: HOP-62
OVCAR-4 = test system: OVCAR-4
SK-MEL-2 = test system: SK-MEL-2
SF-268 = test system: SF-268
SW-620 = test system: SW-620
SN12C = test system: SN12C
HCT-116 = test system: HCT-116
SNB-75 = test system: SNB-75
DMS-114 = test system: DMS-114
SK-MEL-5 = test system: SK-MEL-5
HCT-15 = test system: HCT-15
DLD-1 = test system: DLD-1
UO-31 = test system: UO-31
LOX IMVI = test system: LOX IMVI
UACC-257 = test system: UACC-257
MOLT-4 = test system: MOLT-4
SK-OV-3 = test system: SK-OV-3
RXF 393 = test system: RXF 393
EKVX = test system: EKVX
M14 = test system: M14
XF498 = test system: XF498
HCC 2998 = test system: HCC 2998
A549 = test system: A549
NCI-H460 = test system: NCI-H460
SK-MEL-28 = test system: SK-MEL-28
HOP-18 = test system: HOP-18
SNB-19 = test system: SNB-19
NCI-H23 = test system: NCI-H23
UACC-62 = test system: UACC-62
TK-10 = test system: TK-10
NCI-H522 = test system: NCI-H522
LXFL 529 = test system: LXFL 529
CAKI-1 = test system: CAKI-1
786-0 = test system: 786-0
M19-MEL = test system: M19-MEL
OVCAR-8 = test system: OVCAR-8
A498 = test system: A498
SNB-78 = test system: SNB-78
OVCAR-5 = test system: OVCAR-5
K562 = test system: K562
U-251 = test system: U-251

## COC(=O)/C=C/c1cc(OC)c(OC)c(OC)c1
COLO 205
  GI50: > 100 µM (inactive)
RXF 631
  GI50: 82.4 µM (inactive)
DMS-273
  GI50: > 100 µM (inactive)
IGROV-1
  GI50: > 100 µM (inactive)
Malme-3M
  GI50: > 100 µM (inactive)
KM-20L2
  GI50: > 100 µM (inactive)
NCI-H226
  GI50: 46.1 µM (inactive)
SR
  GI50: > 100 µM (inactive)
HL-60
  GI50: > 100 µM (inactive)
SF-295
  GI50: > 100 µM (inactive)
SF-539
  GI50: > 100 µM (inactive)
HT-29
  GI50: > 100 µM (inactive)
HOP-92
  GI50: > 100 µM (inactive)
OVCAR-3
  GI50: > 100 µM (inactive)
CCRF-CEM
  GI50: > 100 µM (inactive)
ACHN
  GI50: > 100 µM (inactive)
KM12
  GI50: > 100 µM (inactive)
HOP-62
  GI50: > 100 µM (inactive)
OVCAR-4
  GI50: > 100 µM (inactive)
SK-MEL-2
  GI50: > 100 µM (inactive)
SF-268
  GI50: > 100 µM (inactive)
SW-620
  GI50: > 100 µM (inactive)
SN12C
  GI50: > 100 µM (inactive)
HCT-116
  GI50: > 100 µM (inactive)
SNB-75
  GI50: 41.6 µM (inactive)
DMS-114
  GI50: > 100 µM (inactive)
SK-MEL-5
  GI50: > 100 µM (inactive)
HCT-15
  GI50: > 100 µM
DLD-1
  GI50: > 100 µM (inactive)
UO-31
  GI50: 69.3 µM (inactive)
LOX IMVI
  GI50: > 100 µM (inactive)
UACC-257
  GI50: > 100 µM (inactive)
MOLT-4
  GI50: > 100 µM (inactive)
SK-OV-3
  GI50: > 100 µM (inactive)
RXF 393
  GI50: > 100 µM (inactive)
EKVX
  GI50: > 100 µM (inactive)
M14
  GI50: > 100 µM (inactive)
XF498
  GI50: > 100 µM (inactive)
HCC 2998
  GI50: > 100 µM (inactive)
A549
  GI50: > 100 µM (inactive)
NCI-H460
  GI50: > 100 µM (inactive)
SK-MEL-28
  GI50: > 100 µM (inactive)
HOP-18
  GI50: > 100 µM (inactive)
SNB-19
  GI50: > 100 µM (inactive)
NCI-H23
  GI50: > 100 µM (inactive)
UACC-62
  GI50: 78.3 µM (inactive)
TK-10
  GI50: > 100 µM (inactive)
NCI-H522
  GI50: 46.5 µM (inactive)
LXFL 529
  GI50: > 100 µM (inactive)
CAKI-1
  GI50: > 100 µM (inactive)
786-0
  GI50: > 100 µM (inactive)
M19-MEL
  GI50: 93.8 µM (inactive)
OVCAR-8
  GI50: > 100 µM (inactive)

## Cn1cc(NC(=O)c2cc(NC(=O)CCCCCC(=O)Nc3cc(C(=O)Nc4cc(C(=O)NCCC(=N)N)n(C)c4)n(C)c3)cn2C)cc1C(=O)NCCC(=N)N
COLO 205
  GI50: > 100 µM (inactive)
RXF 631
  GI50: > 100 µM (inactive)
DMS-273
  GI50: 67.3 µM (inactive)
IGROV-1
  GI50: 98.6 µM (inactive)
Malme-3M
  GI50: 9.64 µM (inactive)
KM-20L2
  GI50: > 100 µM (inactive)
HL-60
  GI50: 30 µM (inactive)
SF-295
  GI50: > 100 µM (inactive)
SF-539
  GI50: > 100 µM (inactive)
HT-29
  GI50: > 100 µM (inactive)
HOP-92
  GI50: > 100 µM (inactive)
OVCAR-3
  GI50: > 100 µM (inactive)
CCRF-CEM
  GI50: > 100 µM (inactive)
ACHN
  GI50: > 100 µM (inactive)
KM12
  GI50: 73.8 µM (inactive)
OVCAR-4
  GI50: > 100 µM (inactive)
SF-268
  GI50: > 100 µM (inactive)
SW-620
  GI50: > 100 µM (inactive)
SN12C
  GI50: > 100 µM (inactive)
HCT-116
  GI50: 67.1 µM (inactive)
SNB-75
  GI50: > 100 µM (inactive)
DMS-114
  GI50: 33 µM (inactive)
SK-MEL-5
  GI50: 51.3 µM (inactive)
HCT-15
  GI50: > 100 µM
A498
  GI50: > 100 µM (inactive)
DLD-1
  GI50: > 100 µM (inactive)
UO-31
  GI50: > 100 µM (inactive)
LOX IMVI
  GI50: 46.1 µM (inactive)
SNB-78
  GI50: > 100 µM (inactive)
UACC-257
  GI50: 27.2 µM (inactive)
SK-OV-3
  GI50: > 100 µM (inactive)
RXF 393
  GI50: > 100 µM (inactive)
EKVX
  GI50: > 100 µM (inactive)
M14
  GI50: > 100 µM (inactive)
OVCAR-5
  GI50: > 100 µM (inactive)
XF498
  GI50: > 100 µM (inactive)
HCC 2998
  GI50: > 100 µM (inactive)
A549
  GI50: 45.3 µM (inactive)
NCI-H460
  GI50: 26.4 µM (inactive)
SK-MEL-28
  GI50: 25.2 µM (inactive)
HOP-18
  GI50: > 100 µM (inactive)
SNB-19
  GI50: > 100 µM (inactive)
NCI-H23
  GI50: > 100 µM (inactive)
UACC-62
  GI50: 64.9 µM (inactive)
K562
  GI50: 83.6 µM (inactive)
TK-10
  GI50: > 100 µM (inactive)
LXFL 529
  GI50: > 100 µM (inactive)
CAKI-1
  GI50: > 100 µM (inactive)
786-0
  GI50: > 100 µM (inactive)
M19-MEL
  GI50: 15.2 µM (inactive)
OVCAR-8
  GI50: > 100 µM (inactive)
U-251
  GI50: > 100 µM (inactive)
